Broadly, the inhibition is the drop in the measured response relative to a control, in per cent.

Here are results for 33 compounds from US5284850A, “Terpene amino alcohols and medicinal uses thereof” (Kuraray Co., Ltd., priority 1985, dated 1994).

The test relates to sensitized bronchial muscle. As to the kind of experiment: Antiallergic action: inhibition of egg albumin-induced contraction of sensitized guinea pig bronchial muscle. Format: tissue-based, guinea pigs of Hartley strain. To be noted: Cavia porcellus; for inhibition at 1 µM: 10^-6 M; for inhibition at 0.1 µM: 10^-7 M; for inhibition at 10 µM: 10^-5 M; for inhibition at 100 µM: 10^-4 M; for inhibition at 0.01 µM: 10^-8 M. Here is the method: Male guinea pigs of Hartley strain (body weight: about 250 g) were intraperitoneally or intramuscularly dosed with egg albumin (dose 100 mg/kg) and the same procedure was repeated after 3 days. After 3 to 4 weeks, the guinea pi-as were bled to death and the sensitized bronchial muscle was excised and cut into 1.5 mm thick rings. Three rings were joined to prepare a specimen. The specimen was suspended in a tissue bath and a load of 1 g was applied. […] After stabilization of the specimen (after about 1 hour), histamine hydrochloride was added to the bath at a final concentration of 10^-5 M. The contraction curve was recorded. After the contraction had been stabilized, the specimen was washed with 3 portions of Ringer's solution at 10-minute intervals to stabilize the contraction (about 1 hour was required). Then, the test compound was added to the tissue bath and, after an interval of 10 minutes, 5 mg/ml of egg albumin was added. The contraction amplitude of the specimen was measured and the percent inhibition was calculated according to the following formula. [formula] A: Contraction amplitude of control group when egg albumin is added A': Contraction amplitude of dosage group when egg albumin is added
H: Contraction amplitude of control group when histamine hydrochloride is added
H': Contraction amplitude of dosage group when histamine hydrochloride is added

Turning to `COc1ccccc1N1CCN(CC(O)C(C)(O)CCCC(C)CCCC(C)C)CC1` (stereo not shown) [Compound (42)], the inhibition at 1 µM was 58% and the inhibition at 0.1 µM worked out at 35%.

Turning to `CC(C)=CCCC(C)(O)C(O)CN` (stereo not shown) [Compound (43)], the inhibition at 1 µM came out at 65%.

Take `CNCC(O)C(C)(O)CCC=C(C)C` (stereo not shown) [Compound (44)]: the inhibition at 10 µM was 63% and the inhibition at 1 µM was 54%.

For `CC(C)=CCCC(C)(O)C(O)CN(C)C` (stereo not shown) [Compound (45)], the inhibition at 100 µM was determined as 52%, the inhibition at 10 µM worked out at 41% and the inhibition at 1 µM is 26%.

Regarding `CCNCC(O)C(C)(O)CCC=C(C)C` (stereo not shown) [Compound (46)], the inhibition at 100 µM is 38%, the inhibition at 10 µM turned out to be 54% and the inhibition at 1 µM stood at 23%.

Take `CCCNCC(O)C(C)(O)CCC=C(C)C` (stereo not shown) [Compound (47)]: the inhibition at 10 µM was determined as 52%, the inhibition at 1 µM came to 43% and the inhibition at 0.1 µM was 5%.

Take `CCN(CC)CC(O)C(C)(O)CCC=C(C)C` (stereo not shown) [Compound (48)]: the inhibition at 10 µM amounted to 47% and the inhibition at 1 µM is 39%.

Take `CCCCNCC(O)C(C)(O)CCC=C(C)C` (stereo not shown) [Compound (49)]: the inhibition at 1 µM stood at 61% and the inhibition at 0.1 µM was found to be 20.7%.

For `CC(C)=CCCC(C)(O)C(N)CO` (stereo not shown) [Compound (50), 2-amino-3,7-dimethyl-6-octene-1,3-diol], the inhibition at 10 µM amounted to 55%, the inhibition at 1 µM is 20% and the inhibition at 0.1 µM is 0%.

`CC(C)=CCCC(C)(O)C(CO)N(C)C` (stereo not shown) [Compound (51)]: the inhibition at 10 µM worked out at 41%, the inhibition at 1 µM is 18% and the inhibition at 0.1 µM was found to be 0%.

In the case of `CCCNC(CO)C(C)(O)CCC=C(C)C` (stereo not shown) [Compound (52)], the inhibition at 10 µM turned out to be 62%, the inhibition at 1 µM turned out to be 31%, the inhibition at 0.1 µM came out at 7% and the inhibition at 0.01 µM is 0%.

`CCCCN(CCCC)C(CO)C(C)(O)CCC=C(C)C` (stereo not shown) [Compound (53)]: the inhibition at 10 µM was 33%, the inhibition at 1 µM is 59%, the inhibition at 0.1 µM amounted to 49% and the inhibition at 0.01 µM is 8%.

On to `CC(C)=CCCC(C)(O)C(CO)N1CCCC1` (stereo not shown) [Compound (54)], for which the inhibition at 10 µM amounted to 54%, the inhibition at 1 µM worked out at 63%, the inhibition at 0.1 µM is 33% and the inhibition at 0.01 µM was 20%.

Take `CC(C)=CCCC(C)(O)C(CO)N1CCCCC1` (stereo not shown) [Compound (55)]: the inhibition at 10 µM worked out at 45%, the inhibition at 1 µM was 17%, the inhibition at 0.1 µM is 9% and the inhibition at 0.01 µM came to 0%.

As for `CC(C)=CCCC(C)(O)C(CO)N1CCOCC1` (stereo not shown) [Compound (56)], the inhibition at 10 µM worked out at 27%, the inhibition at 1 µM was determined as 44%, the inhibition at 0.1 µM stood at 16% and the inhibition at 0.01 µM came out at 0%.

Consider `CC(C)=CCCC(C)(O)C(CO)N(C)CCO` (stereo not shown) [Compound (57)], for which the inhibition at 10 µM was determined as 35% and the inhibition at 1 µM stood at 17%.

For the compound `CC(C)CCCC(C)(O)C(N)CO` (stereo not shown) [Compound (58)], the inhibition at 100 µM came to 21%, the inhibition at 10 µM was 0% and the inhibition at 1 µM turned out to be 0%.

Consider `CCCCN(CCCC)C(CO)C(C)(O)CCCC(C)C` (stereo not shown) [Compound (59), 2-(dibutylamino)-3,7-dimethyl-1,3-octanediol], for which the inhibition at 10 µM stood at 49%, the inhibition at 1 µM is 51% and the inhibition at 0.1 µM came to 0%.

With `CC(C)CCCC(C)(O)C(CO)N(C)CCO` (stereo not shown) [Compound (60), 2-[(2-hydroxyethyl)methylamino]-3,7-dimethyl-1,3-octanediol], the inhibition at 10 µM amounted to 35%, the inhibition at 1 µM amounted to 11% and the inhibition at 0.1 µM was 0%.

Take `CC(C)CCCC(C)CCCC(C)(O)C(C)N` (stereo not shown) [Compound (61)]: the inhibition at 10 µM stood at 70%, the inhibition at 1 µM stood at 48% and the inhibition at 0.1 µM stood at 24%.

On to `CNC(CO)C(C)(O)CCCC(C)CCCC(C)C` (stereo not shown) [Compound (62)], for which the inhibition at 10 µM worked out at 39%, the inhibition at 1 µM is 35% and the inhibition at 0.1 µM is 12%.

`CC(C)CCCC(C)CCCC(C)(O)C(CO)NC1CCN(Cc2ccccc2)CC1` (stereo not shown) [Compound (63)]: the inhibition at 1 µM turned out to be 55%, the inhibition at 0.1 µM turned out to be 45% and the inhibition at 0.01 µM stood at 11%.

Take `CC(C)CCCC(C)CCCC(C)(O)C(CO)n1ccnc1` (stereo not shown) [Compound (64)]: the inhibition at 0.1 µM was determined as 63%.

As to `COc1ccc(CN2CCN(C(CO)C(C)(O)CCCC(C)CCCC(C)C)CC2)c(OC)c1OC` (stereo not shown) [Compound (65)], the inhibition at 10 µM is 73%, the inhibition at 1 µM was 54% and the inhibition at 0.1 µM is 37%.

`CC(C)CCCC(C)CCCC(C)(O)C(CO)N(C)C(=O)c1cccnc1` (stereo not shown) [Compound (66), N-methyl-N-(1,3-dihydroxy-3,7,11-trimethyldodecan-2-yl)nicotinamide]: the inhibition at 10 µM was 77%, the inhibition at 1 µM came to 72% and the inhibition at 0.1 µM is 81%.

On to `CC(C)CCCC(C)CCCC(C)(O)C(CO)NCCO` (stereo not shown) [Compound (67)], for which the inhibition at 10 µM was found to be 46%, the inhibition at 1 µM came to 49% and the inhibition at 0.1 µM was found to be 18%.

Take `CC(C)CCCC(C)CCCC(C)(O)C(CO)N1CCSCC1` (stereo not shown) [Compound (68)]: the inhibition at 10 µM turned out to be 38%, the inhibition at 1 µM was determined as 36% and the inhibition at 0.1 µM amounted to 22%.

With `CC(C)CCCC(C)CCCC(C)(O)C(CO)NCCCN1CCOCC1` (stereo not shown) [Compound (69)], the inhibition at 1 µM stood at 65% and the inhibition at 0.1 µM turned out to be 52%.

As for `CNC(C)C(C)(O)CCCC(C)(O)CCCC(C)C` (stereo not shown) [Compound (70), 2-(methylamino)-3,7,11-trimethyl-3,7-dodecanediol], the inhibition at 1 µM amounted to 42% and the inhibition at 0.1 µM was 19%.

Consider `CC(C)CCCC(C)(O)CCCC(C)(O)C(C)N(C)Cc1ccccc1` (stereo not shown) [Compound (71), 2-(benzylmethylamino)-3,7,11-trimethyl-3,7-dodecanediol], for which the inhibition at 1 µM was found to be 37% and the inhibition at 0.1 µM came to 46%.

In the case of `CC(C)CCCC(C)CCCC(C)CCCC(C)(O)C(CO)N(C)C` (stereo not shown) [Compound (72)], the inhibition at 10 µM was found to be 51%, the inhibition at 1 µM was determined as 60%, the inhibition at 0.1 µM stood at 24% and the inhibition at 0.01 µM came out at 9%.

As for `CC(C)CCCC(C)CCCC(C)CCCC(C)(O)C(CO)N(C)CCO` (stereo not shown) [Compound (73)], the inhibition at 10 µM was 36%, the inhibition at 1 µM was 58%, the inhibition at 0.1 µM is 47% and the inhibition at 0.01 µM is 21%.

Turning to `CC(C)CCCC(C)CCCC(C)CCCC(C)(O)C(CO)N(C)CCOC(=O)c1cccnc1` (stereo not shown) [Compound (74)], the inhibition at 10 µM was 43%, the inhibition at 1 µM is 16% and the inhibition at 0.1 µM came to 20%.
